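Following 48 hours of exposure in 96-well plates, responses at five concentrations were used to interpolate endpoints linearly. TGI denotes the concentration required for complete inhibition of growth.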
Tests used:
Assay in all cases: NCI anticancer screen, dose series, 48 h
[1] = tested on: OVCAR-5 ovarian
[2] = tested on: SF-295 CNS
[3] = tested on: CAKI-1 renal
[4] = tested on: OVCAR-8 ovarian
[5] = tested on: HOP-92 NSCLC
[6] = tested on: IGROV1 ovarian
[7] = tested on: NCI-H226 lung
[8] = tested on: LOX IMVI melanoma
[9] = tested on: MALME-3M melanoma
[10] = tested on: ACHN renal
[11] = tested on: OVCAR-4 ovarian
[12] = tested on: RXF 393 renal
[13] = tested on: HCT-116 colon
[14] = tested on: MDA-MB-231 breast
[15] = tested on: SK-MEL-2 melanoma
[16] = tested on: MDA-MB-435
[17] = tested on: A498 renal
[18] = tested on: SN12C renal
[19] = tested on: NCI-H23 lung
[20] = tested on: K-562 leukemia
[21] = tested on: DU-145 prostate
[22] = tested on: T-47D breast
[23] = tested on: MDA-N
[24] = tested on: UACC-62 melanoma
[25] = tested on: COLO 205 colon
[26] = tested on: HOP-62 NSCLC
[27] = tested on: NCI-H460 lung
[28] = tested on: SR leukemia
[29] = tested on: NCI-H522 lung
[30] = tested on: HT29 colon
[31] = tested on: UACC-257 melanoma
[32] = tested on: M14 melanoma
[33] = tested on: SK-MEL-5 melanoma
[34] = tested on: SF-268 CNS
[35] = tested on: OVCAR-3 ovarian
[36] = tested on: U251 CNS
[37] = tested on: NCI/ADR-RES ovarian
[38] = tested on: A549 NSCLC
[39] = tested on: SF-539 CNS
[40] = tested on: HCT-15 colon
[41] = tested on: BT-549 breast
[42] = tested on: UO-31 renal
[43] = tested on: MOLT-4 leukemia
[44] = tested on: HS 578T breast
[45] = tested on: RPMI-8226 leukemia
[46] = tested on: SNB-75 CNS
[47] = tested on: MCF7 breast
[48] = tested on: CCRF-CEM leukemia
[49] = tested on: SK-MEL-28 melanoma
[50] = tested on: TK-10 renal
[51] = tested on: HL-60(TB) leukemia
[52] = tested on: HCC-2998 colon
[53] = tested on: PC-3 prostate
[54] = tested on: SK-OV-3 ovarian
[55] = tested on: EKVX NSCLC
[56] = tested on: SW-620 colon
[57] = tested on: SNB-19 CNS
[58] = tested on: KM12 colon
[59] = tested on: 786-0 renal

Measured: TGI

O=[N+]([O-])O
> 100 µM: all assays above

Reference: PubChem BioAssay (NCI)
